According to paper PMC8859984 (Journal of medicinal chemistry, 2020):
Entries after “also recorded” stand apart in the source; their conditions may differ.

Experiments:
[1] = tested on: KARPAS422 cells
[2] = molecular target: EED (1–441)-His protein (Homo sapiens, UniProt O75530); experiment: EED-H3K27me3 peptide competition binding assay by AlphaScreen; conditions: vs compound 21
[3] = tested on: H3K27me3; experiment: Pharmacodynamic analysis of H3K27me3 in KARPAS422 xenograft tumor tissue; format: in vivo, SCID mice; conditions: single 100 mg/kg oral administration, 24 h, Western blotting
[4] = tested on: KARPAS422 xenograft model; experiment: Antitumor activity in the KARPAS422 xenograft model; format: in vivo, SCID mice; conditions: for tumor regression in KARPAS422 xenograft model: 50 and 100 mg/kg via oral gavage, daily for 28 days
[5] = Animal body weights during the KARPAS422 xenograft efficacy experiment; format: in vivo, SCID mice; conditions: 50 and 100 mg/kg oral gavage daily for 28 days
[6] = tested on: tumor growth; conditions: 300 mg/kg twice a week subcutaneous injections for 5 weeks; cited from earlier work
[7] = tested on: KARPAS422 cell tumor; conditions: 300 mg/kg twice daily via oral gavage; cited from earlier work

Sequence of EED (1–441)-His protein (O75530 whole entry): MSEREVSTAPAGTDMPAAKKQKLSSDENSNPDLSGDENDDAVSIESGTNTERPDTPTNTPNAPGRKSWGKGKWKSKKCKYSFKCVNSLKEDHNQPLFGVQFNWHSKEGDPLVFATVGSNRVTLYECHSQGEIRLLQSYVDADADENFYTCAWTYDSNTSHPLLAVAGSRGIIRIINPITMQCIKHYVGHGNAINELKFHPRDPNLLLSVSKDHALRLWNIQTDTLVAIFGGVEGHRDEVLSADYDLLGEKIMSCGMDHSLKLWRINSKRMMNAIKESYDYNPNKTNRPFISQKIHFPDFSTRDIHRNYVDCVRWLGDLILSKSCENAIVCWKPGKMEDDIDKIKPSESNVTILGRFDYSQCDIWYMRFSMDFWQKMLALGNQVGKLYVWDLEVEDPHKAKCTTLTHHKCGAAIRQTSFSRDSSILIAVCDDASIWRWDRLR

With `CCOC(=O)c1ncn2c(NCc3ccco3)ncc(-c3ccccc3)c12` [Compound 8, Ethyl 5-((Furan-2-ylmethyl)amino)-8-phenylimidazo[1,5-c]-pyrimidine-1-carboxylate] the “times more potent than 7 in inhibition of cell growth in KARPAS422” value ([1]; vs compound 7) was 2 times.
For `CCOC(=O)c1ncn2c(NCc3ccccc3)ncc(-c3ccccc3)c12` [Compound 10, Ethyl 5-(Benzylamino)-8-phenylimidazo[1,5-c]pyrimidine-1-carboxylate], the “times less potent than 8 in cellular assay” value ([1]; vs compound 8, KARPAS422) was 2–3 times.
For `CCOC(=O)c1ncn2c(NCc3c(F)cccc3OC)ncc(-c3ccccc3)c12` [Compound 12, Ethyl 5-((2-Fluoro-6-methoxybenzyl)amino)-8-phenylimidazo-[1,5-c]pyrimidine-1-carboxylate], the “times more potent than 11 in cell growth inhibition in KARPAS422” value ([1]; vs compound 11) was 6 times.
For `CCOC(=O)c1ncn2c(NCc3cc(OC)ccc3F)ncc(-c3ccccc3)c12` [Compound 13, Ethyl 5-((2-Fluoro-5-methoxybenzyl)amino)-8-phenylimidazo-[1,5-c]pyrimidine-1-carboxylate], the “times less potent than 12 in cell growth inhibition in KARPAS422” value ([1]; vs compound 12) was 8 times.
For `CCOC(=O)c1ncn2c(NCc3cccc4c3CCO4)ncc(-c3ccccc3)c12` [Compound 17, Ethyl 5-(((2,3-Dihydrobenzofuran-4-yl)methyl)amino)-8-phenylimidazo[1,5-c]pyrimidine-1-carboxylate], the “times more potent than 16 in inhibition of cell growth in KARPAS422” value ([1]; vs compound 16) was 30 times.
With `CS(=O)(=O)c1ncn2c(NCc3c(F)ccc4c3CCO4)ncc(-c3ccc(F)cc3)c12` [Compound 24, N-((5-Fluoro-2,3-dihydrobenzofuran-4-yl)methyl)-8-(4-fluorophenyl)-1(methylsulfonyl)imidazo[1,5-c]pyrimidin-5-amine] the “times less potent than 21 in inhibition of KARPAS422 cell growth” value ([1]; vs compound 21) was 2–3 times.
For `CS(=O)(=O)c1ncn2c(NCc3c(F)ccc4c3CCO4)ncc(-c3ccc(C4CC4)nc3)c12` [Compound 28, 8-(6-Cyclopropylpyridin-3-yl)-N-((5-fluoro-2,3-dihydrobenzofuran-4-yl)methyl)-1-(methylsulfonyl)imidazo[1,5-c]pyrimidin-5-amine], the “times more potent than 21 in binding to EED” value [2] was 3–4 times, the “level of H3K27me3 in KARPAS422 tumor tissue” value [3] was “effectively reduces the level of H3K27me3” and the “tumor regression in KARPAS422 xenograft model” value ([4]; listed as EEDi-5285) was “complete and durable tumor regression; also recorded: complete and long-lasting tumor regression”. For the same molecule, the “regrowth of tumors after end of treatment” value ([4]; after treatment had been stopped for 72 days, 50 and 100 mg/kg oral daily for 28 days) was “no regrowth of tumors was observed”, the “animal weight loss during the entire experiment” value [5] was “minimal weight loss” and the “times more potent than 21 in inhibition of KARPAS422 cell growth” value ([1]; vs compound 21) was 3–4 times.
In the case of `CS(=O)(=O)c1ncn2c(NCc3c(F)ccc4c3CCO4)ncc(-c3ccc(C(F)F)nc3)c12` [Compound 29, 8-(6-(Difluoromethyl)pyridin-3-yl)-N-((5-fluoro-2,3-dihydrobenzofuran-4-yl)methyl)-1-(methylsulfonyl)imidazo[1,5-c]pyrimidin-5-amine], the “times more potent than 21 in binding to EED” value [2] was 5 times.
In the case of `Cc1ccc(-c2cnc(NCc3c(F)ccc4c3CCO4)n3cnc(S(C)(=O)=O)c23)c(C)n1` [Compound 32, 8-(2,6-Dimethylpyridin-3-yl)-N-((5-fluoro-2,3-dihydrobenzofuran-4-yl)methyl)-1-(methylsulfonyl)imidazo[1,5-c]pyrimidin-5-amine], the “level of H3K27me3 in KARPAS422 tumor tissue” value [3] was “effectively reduces the level of H3K27me3” and the “tumor regression in KARPAS422 xenograft model” value ([4]; listed as EEDi-1056) was “complete tumor regression”.
In the case of `CS(=O)(=O)c1ncn2c(NCc3c(F)ccc4c3CCO4)ncc(C3CCOCC3)c12` [Compound 35, N-((5-Fluoro-2,3-dihydrobenzofuran-4-yl)methyl)-1-(methylsulfonyl)-8-(tetrahydro-2H-pyran-4-yl)imidazo[1,5-c]pyrimidin-5-amine], the “times less potent than 21 in binding to EED” value [2] was 17 times and the “times less potent than 21 in inhibition of KARPAS422 cell growth” value ([1]; vs compound 21) was 24 times.
In the case of `CN(C)[C@H]1CN(C2CCc3cccc(F)c32)C[C@@H]1c1ccc(N2CCN(S(C)(=O)=O)CC2)cc1` (stereo partly shown) [Compound A-395], the “inhibition of tumor growth” value [6] is listed as 84%.
In the case of `CS(=O)(=O)c1ccc(-c2cnc(NCc3ccco3)n3cnnc23)cc1` [EED226], the “KARPAS422 cell tumor regression” value [7] is listed as “complete KARPAS422 cell tumor regression”.
